Experimental data published in patent US5006549A, “Novel 7-aroyl-4-hydroxy-3-methyl-benzofurans as dual inhibitors of cyclooxygenase and 5-lipoxygenase” (priority 1989, dated 1991).
Where two headings read alike, the source gives them in different places.

How the values were obtained:
cyclooxygenase [1] = conditions: bovine seminal vesicle microsomal enzyme preparation; read-out: IC50 against cyclooxygenase; cited from earlier work
5-lipoxygenase = conditions: cited from earlier work
[2] = system: animal models of inflammation; conditions: several animal models; cited from earlier work
[3] = molecular target: T1, Ram seminal vesicle microsomal cyclooxygenase (Ovis aries, UniProt P05979); assay: Ram Seminal Vesicle Microsomal Cyclooxygenase Assay (RSV CO); type: biochemical; conditions: for IC50: RSV cyclooxygenase, mean values of at least two titrations; for activity in the CO assay: reference compounds
T1 construct: Ram seminal vesicular glands were trimed of excess fat; from tissue; host or cells: ram seminal vesicular glands, microsomes (105K×g pellet)
T1 sequence (P05979 25-600): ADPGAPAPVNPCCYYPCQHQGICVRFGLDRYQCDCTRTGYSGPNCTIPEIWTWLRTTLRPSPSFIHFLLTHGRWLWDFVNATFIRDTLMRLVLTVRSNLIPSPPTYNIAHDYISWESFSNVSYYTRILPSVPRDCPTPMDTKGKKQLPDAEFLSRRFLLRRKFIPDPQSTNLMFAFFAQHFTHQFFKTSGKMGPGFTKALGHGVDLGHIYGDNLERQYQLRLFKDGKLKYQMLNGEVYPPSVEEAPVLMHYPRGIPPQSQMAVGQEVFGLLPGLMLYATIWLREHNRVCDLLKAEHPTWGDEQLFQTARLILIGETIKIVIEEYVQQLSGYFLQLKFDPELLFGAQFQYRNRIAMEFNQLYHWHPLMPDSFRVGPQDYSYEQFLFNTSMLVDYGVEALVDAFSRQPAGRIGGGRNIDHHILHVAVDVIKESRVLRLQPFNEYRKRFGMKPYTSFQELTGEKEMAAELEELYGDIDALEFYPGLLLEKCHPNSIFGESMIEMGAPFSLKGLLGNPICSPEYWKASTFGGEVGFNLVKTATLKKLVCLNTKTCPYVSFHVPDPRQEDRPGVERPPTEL
Protocol: Compounds of formula I were also evaluated in accordance with the ram seminal vesicle microsomal cyclooxygenase (RSV CO) assay.
Ram Seminal Vesicle Microsomal Cyclooxygenase Assay (RSV CO)
Ram seminal vesicular glands were trimed of excess fat, 50 gm diced into ice cold 0.1M potassium phosphate (pH 7.6) buffer and homoginized using a Brinkman Polytron. The suspension was centrifuged 10 min. at 10K×g (4°) and the supernatant filtered through two cheesecloth layers. The filtrate was centrifuged 160 min. at 105K×g. The supernatant was discarded and the pellet surface rinsed with a small volume of buffer. The pellets were combined in a small volume, briefly homoginized with the Polytron and frozen in 0.5 mL aliquots at -80°. The protien concentration was ~50 mg/mL. […] The thawed enzyme was diluted 1:63 with 0.125M sodium EDTA (pH 8.0) containing 50 mg/ml BSA. A substrate cofactor premix was prepared with 66 mL 14C-arachidonic acid (~20K cpm/12.5 mL) in 500 mL 0.125 M sodium EDTA (pH 8.0) plus 10 mL 50 mM hydroquinone and 10 mL 200 mM glutathione. To each sample well in the 96 well plate agents were added disolved in 0.5 mL DMSO followed by 12.5 mL of the diluted enzyme. After a 4 minute preincubation at room temperature 12.5 mL of the substrate cofactor mix was added to start the reaction. The reaction was killed after 20 minutes at room temperature by adding 25 mL methanol containing 200 mg PGE2 and 400 mg AA per mL. The entire reaction mixture was spotted onto a preadsorbent silica gel GF thin layer plate and, after air drying 45 minutes developed 12 cm in ethyl acetate:glacial acetic acid (99:1). The developed lanes were scanned for the distribution of radiolabel using a Bioscan Imaging Detector and the integrated peaks compared to standards and controls yielding percent inhibition.

[4] = system: LTB4 production in PMN (LO); assay: PMN LTB4 Assay (inhibition of LTB4 production in rat PMN); type: cell-based, male Sprague-Dawley rats; conditions: for IC50: leukotriene biosynthesis in rat PMN, mean values of at least two titrations
Protocol: Male Sprague-Dawley rats (~350 g) were injected intraperitoneally the day before use with 8 mL of 12% sodium caseinate. The next day the animals were killed by CO2 asphyxiation and the peritoneal cavity lavaged twice with 20 mL of Hanks balanced salts containing 15 mM HEPES (pH 7.4), 1.4 mM Ca^++ and 0.7 mM Mg^++ (Hepes-Hanks). The suspensions were filtered through plastic mesh and centrifuged at 260×g for 5 minutes. The cells were resuspended in 50 ml Hepes-Hanks and recentrifuged. The PMN pellets were combined and suspended at 1.25×10^7 cells/mL. The cell suspension was diluted 1:10, preincubated 5 minutes at 37° and distributed into 96 well microtiter plates with […]. The wells had previously received samples, controls, ect., in 25 mL of 0.001% fatty acid free BSA in Hepes-Hanks. The plates were incubated 2 min. at 37° and then the cells were stimulated to produce LTB4 by the addition of 25 mL of […]. After 4 minutes the plates were frozen in dry ice. The frozen plates were thawed to 4° and 25 mL aliquots removed to V-well plates. Antibody to LTB4 (50 mL) was added in and after 15 minutes at room temperature, 50 mL of ^3 H-LTB4 was added and the plates were stored overnight at 4° to allow equilibration. The next day the "free" 3HLTB4 was removed by adsorption to dextran coated charcoal ([…]/well of a 4% charcoal suspension with 0.25% Dextran T-70 in 10 mM potassium phosphate (pH 7.3) containing 1 mM EDTA and 0.25 mM thimerasol) durring a 10 minute ice temperature incubation. The charcoal was removed by a 10 minute centrifugation at 260×g. Aliquots of the supernatant were counted in a Packard 460, analyzed in a Masscomp computer (programs "filhariala and fhariasa") and the data reported as percent inhibition of LTB4 production.

[5] = system: LTB4 biosynthesis in intact rat PMN; conditions: cited from earlier work
cyclooxygenase [6] = conditions: cited from earlier work

| SMILES | IC50 [3] [nM] | IC50 [4] [nM] | further results |
| --- | --- | --- | --- |
| CC(C)(C)c1cc(C(=O)c2cccs2)cc(C(C)(C)C)c1O [A, 2,6-di-tert-butyl-4-(2-thienoyl) phenol] | – | – | IC50 (cyclooxygenase [1]): 500 nM; potency at inhibiting guinea pig lung 5-lipoxygenase relative to cyclooxygenase (5-lipoxygenase; compared with bovine seminal vesicle cyclooxygenase): fortyfold less potent; IC50 (5-lipoxygenase; guinea pig lung, read-out: IC50 against guinea pig lung 5-lipoxygenase): 20000 nM; antiinflammatory activity in animal models of inflammation [2]: novel antiinflammatory agent in several animal models of inflammation |
| Cc1coc2c(C(=O)c3cccs3)ccc(O)c12 [Compound 3, 3-Methyl-4-hydroxy-7-(2-thienoyl)benzofuran] | 800 | 2700 | – |
| C=CCc1cc(C(=O)c2cccs2)c2occ(C)c2c1O [Compound 4, 3-methyl-4-hydroxy-5-(2-propen-1-yl)-7-(2-thienoyl)benzofuran] | 5600 | 6700 | – |
| CCCc1cc(C(=O)c2cccs2)c2occ(C)c2c1O [Compound 5, 3-Methyl-4-hydroxy-5-propyl-7-(2-thienoyl)benzofuran] | 1300 | 1700 | – |
| Cc1coc2c(C(=O)c3ccccc3)ccc(O)c12 [Compound 6, 3-Methyl-4-hydroxy-7-benzoylbenzofuran] | 1300 | 3500 | – |
| Cc1coc2c(C(C)(C)C)ccc(O)c12 [Compound 10a, 3-Methyl-4-hydroxy-7-tert-butylbenzofuran] | – | 2100 | inhibition at 1000 µg/mL ([3]; read-out: % inhibition (CO)): 1% |
| Cc1coc2c(C(C)(C)C)cc(C(C)(C)C)c(O)c12 [Compound 10b, 3-Methyl-4-hydroxy-5,7-di-tert-butylbenzofuran] | – | – | inhibition at 10000 µg/mL ([3]; read-out: % inhibition (CO)): 0%; inhibition at 1000 µg/mL ([4]; Rattus norvegicus, at 1 mg/ml): 37% |
| Cc1coc2ccc(C(C)(C)C)c(O)c12 [Compound 12b, 3-Methyl-4-hydroxy-5-tert-butylbenzofuran] | 54000 | 600 | – |
| Cc1coc2c(C(=O)c3cccs3)cc(C(C)(C)C)c(O)c12 [Compound 14, 3-Methyl-4-hydroxy-5-tert-butyl-7-(2-thienoyl)-benzofuran] | 1000 | 1500 | – |
| Cc1coc2c(C(=O)c3ccccc3)cc(C(C)(C)C)c(O)c12 [Compound 16, 3-Methyl-4-hydroxy-5-tert-butyl-7-benzoylbenzofuran] | 1300 | 1100 | – |
| Cc1coc2c(C(=O)c3ccc(Cl)cc3)cc(C(C)(C)C)c(O)c12 [Compound 19, 3-Methyl-4-hydroxy-5-tert-butyl-7-p-chlorobenzoylbenzofuran] | 1200 | 4400 | – |
| CCCc1cc(Cl)c2oc(Cc3ccccc3)c(C)c2c1O [Compound B] | – | – | IC50 [5]: 240 nM; potency on cyclooxygenase relative to LTB4 biosynthesis inhibition (selectivity) (cyclooxygenase [6]; RSV CO versus intact rat PMN): a hundred times less potent; IC50 (cyclooxygenase [6]; RSV CO): 25000 nM |
| CC(C)Cc1ccc(C(C)C(=O)O)cc1 (centres unmarked) [ibuprofen, reference compound] | – | – | activity in the CO assay [3]: displaying activity |
| COc1ccc2c(c1)c(CC(=O)O)c(C)n2C(=O)c1ccc(Cl)cc1 [indomethacin, reference compound] | – | – | activity in the CO assay [3]: displaying activity |
